Experimental findings from PubChem BioAssay AID179 (DTP/NCI, 2004) are described below.

The source made the active and inactive calls.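 How the source made its calls: active means compounds giving half or more protection of infected cells from virus-caused growth loss, again on retest; inactive means the rest.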

This assay has as its system CEM cells HIV-1 protection, formazan growth assay. As to the kind of experiment: NCI AIDS Antiviral Assay. The settings on record: for IC50: measured here: growth of uninfected CEM cells. The protocol: The ability of compounds to protect human CEM cells from HIV-1 infection is measured as a screen for new compounds capable of inhibiting the HIV virus. Five concentrations of drug were tested on uninfected and infected cells and cell growth was measured using a soluble formazan assay. […] Compounds that provided at least 50% protection were retested. Compounds that provided at least 50% protection on retest were listed as moderately active. Compounds that reproducibly provided 100% protection were listed as confirmed active. […] Note that the inability to provide protection could be due to toxicity.

With `O=C1COC(c2ccccc2O)=NN1Cc1ccccc1`, the EC50 is more than 49 µM and the IC50 is more than 49 µM.
On to `COc1cc(C2c3cc4c(cc3OC(N3CCOCC3)C2C)OCO4)cc(OC)c1OC(C)=O` (stereo unspecified), for which the EC50 is more than 200 µM and the IC50 came to 3.31 µM.
On to `CCOC(=O)C1CC(C(=O)OCC)(c2ccccc2)CCC1=O` (stereo unspecified), for which the EC50 was more than 58.9 µM and the IC50 was determined as 47.9 µM.
As for `CCCN1CN(C(C(=O)N[C@@H]2C(=O)N3C(C(=O)O)=C(C)CSC23)c2ccc(O)cc2)CSC1=S` (stereo partly specified), the EC50 is more than 347 µM and the IC50 was found to be 195 µM.
As to `Nc1nc2n[nH]nc2c(=O)[nH]1`, the EC50 was more than 89.1 µM and the IC50 came to 0.302 µM.
Consider `CCOC(=O)CC1NCCc2cc(OC)c(OC)c([N+](=O)[O-])c21` (stereo unspecified), for which the outcome was inactive.
Consider `CN=S(=O)(C[C@]1(O)CC2OC1C1OC(C)(C)OC21)c1ccccc1` (stereo partly specified), for which the EC50 was more than 708 µM and the IC50 was more than 708 µM.
On to `COc1cccc2nc3cc(C)c(C)cc3nc12`, for which the EC50 was more than 30.2 µM and the half-inhibitory concentration (IC50) was more than 30.2 µM.
`CCN(CC)CCC(=O)c1ccc(Cl)cc1`: the EC50 is more than 912 µM and the IC50 amounted to 12.3 µM.
In the same order, the values of `CC1(C)OC2OC(COC(=S)SSC(=S)OCC3OC4OC(C)(C)OC4C4OC(C)(C)OC34)C3OC(C)(C)OC3C2O1` (stereo unspecified) are more than 200 µM and 5.62 µM.
In the case of `O=Cc1ccccc1CCn1c(=O)c2cc3c(=O)n(CCc4ccccc4C=O)c(=O)c3cc2c1=O`, the EC50 was more than 10.7 µM and the IC50 is more than 10.7 µM.
On to `COc1cc(CO)c(CC(=O)NCCCc2ccccc2)cc1OC`, for which the EC50 was more than 200 µM and the 50% inhibitory concentration (IC50) came out at 18.2 µM.
For the compound `Nc1nc2c3nc(Nc4ccccc4)sc3nc(=S)n2c2sc(Nc3ccccc3)nc12`, the EC50 is more than 11 µM and the IC50 is more than 11 µM.
On to `Cc1cn(C2CC(CCCO)C(CO)O2)c(=O)[nH]c1=O` (stereo unspecified), for which the EC50 was more than 871 µM and the IC50 was more than 871 µM.
For `Cc1cc2c(cc1C)NS(=O)(=O)N2`, the EC50 is more than 447 µM and the IC50 is 9.77 µM.
Take `CCOC(=O)C1SC(=Nc2cccc(Cl)c2C)N=C1C` (stereo unspecified): the EC50 was 6.03 µM and the IC50 was 60.3 µM.
Take `CC(=O)N/C=C/c1cc(O)ccc1O`: the result was inactive.
Consider `O=C1N(Cl)C2C(N1Cl)N(Cl)C(=O)N2Cl` (stereo unspecified), for which the EC50 is more than 200 µM and the IC50 was more than 200 µM.
As to `CCNCC(=O)O[C@]1(CC)C(=O)OCc2c1cc1n(c2=O)Cc2cc3ccccc3nc2-1`, the EC50 was more than 10 µM and the IC50 came out at 0.0708 µM.
For `COc1ccc2c(c1O)C1=CC(=O)CC[C@]13CCN(C)[C@H]3C2`, in that order: more than 832 µM and 661 µM.
As for `N#CNC(=NCC1CCCO1)Nc1cccnc1` (stereo unspecified), the EC50 is more than 1020 µM and the IC50 amounted to 933 µM.
In the case of `CCCCCCCCCCCCCCCC[N+]1(C)CC2CCCCC2C1` (stereo unspecified), the EC50 is more than 2 µM and the IC50 is 0.55 µM.
For `NC(=O)C12CCC1C1CCCCC12N1CCOCC1` (stereo unspecified), the outcome was inactive.
As for `COP(C)(=O)C(Cc1c[nH]c2ccccc12)NC(=O)OCc1ccccc1` (stereo unspecified), the EC50 is more than 200 µM and the IC50 was more than 200 µM.
In the case of `CCOC(=O)C1(C)CCC(C(C(=O)O)C(=O)O)CC1=O` (stereo unspecified), the outcome was inactive.
In the case of `Cc1cc2oc(-c3ccccc3)c(C)c(=O)c2c2c1OC(C)(C)S2`, the EC50 was more than 39.8 µM and the IC50 is more than 39.8 µM.
`CC1OC(=O)C(O)=C1O` (stereo unspecified): the result was inactive.
With `CC1(O)CSc2c(C=O)c3ccccc3n21` (stereo unspecified), the EC50 was more than 1070 µM and the IC50 turned out to be 67.6 µM.
For `O=C(NNC(=O)c1ccccc1O)c1cccc(Br)c1`, in that order: more than 200 µM and 6.46 µM.
On to `CCC/C=C(/Br)[Si](C)(C)C`, for which the EC50 is more than 427 µM and the IC50 came to 372 µM.
For the compound `Nc1ncnc2c1S(=O)(=O)NCN2`, the EC50 is more than 178 µM and the IC50 is more than 178 µM.
With `CCOC(=O)/C(=C/c1ccccc1Br)P(=O)(OCC)OCC`, the EC50 is more than 91.2 µM and the IC50 came out at 5.75 µM.
Take `NC(=S)C(=S)N=Cc1c(O)c2ccccc2oc1=O`: the EC50 was more than 200 µM and the IC50 stood at 102 µM.
Consider `OCC1OC(n2ccc3c2ncn2cnnc32)C(O)C1O` (stereo unspecified), for which the EC50 was more than 309 µM and the IC50 is 29.5 µM.
Turning to `C[C@H](N)C(=O)N[C@@H]1[C@H]2C(=C(O)C[C@@H](O)[C@@H]2O)C(=O)O[C@]1(C)C(Cl)Cl`, the EC50 is more than 67.6 µM and the IC50 worked out at 0.224 µM.
As to `NC(Cc1ccc(S(=O)(=O)O)cc1)C(=O)NC(Cc1ccc(S(=O)(=O)O)cc1)C(=O)NC(Cc1ccc(S(=O)(=O)O)cc1)C(=O)NC(Cc1ccc(S(=O)(=O)O)cc1)C(=O)O` (stereo unspecified), the EC50 is more than 200 µM and the IC50 is more than 200 µM.
Take `CC1(C)OC(=O)C(C#N)=C1/C=C1\OC(=O)c2ccccc21`: the EC50 was more than 178 µM and the IC50 came out at 52.5 µM.
For the compound `Cc1ccc(C(=O)c2c(C)cccc2C(=O)O)c(C)c1`, the EC50 is more than 200 µM and the IC50 is more than 200 µM.
With `Cc1ccc(NC(=O)CCC(=O)C2Cc3ccccc3C2=O)cc1C` (stereo unspecified), the EC50 is more than 741 µM and the IC50 worked out at 724 µM.
In the same order, the values of `O=C(Nc1cccc(C(F)(F)F)c1)C(Cl)=C(Cl)Cl` are more than 200 µM and 2.34 µM.
As for `O=S(=O)(N=S(c1ccc(Cl)cc1)c1ccc(Cl)cc1)c1ccccc1`, the EC50 was more than 24.5 µM and the IC50 was more than 24.5 µM.
Regarding `OCCOCn1nc(-c2ccccc2)nc1-c1cnccn1`, the EC50 is more than 200 µM and the IC50 was more than 200 µM.
Take `CC12CCC3c4ccc(OS(=O)(=O)O)cc4CCC3C1CC(O)C2O` (stereo unspecified): the result was inactive.
Turning to `COc1cc2c(c3c1[C@@H](O)[C@@H](C)[C@@H](C)O3)C=CC(C)(C)O2`, the EC50 was more than 200 µM and the IC50 was 75.9 µM.
As to `CC/C(CC(=O)CCC(=O)Nc1ccccc1[N+](=O)[O-])=N/NC(=O)C[n+]1ccccc1`, the EC50 is more than 25.7 µM and the IC50 was more than 25.7 µM.
Turning to `COCc1cn(C2CC(F)C(CO)O2)c(=O)nc1N` (stereo unspecified), the EC50 was more than 457 µM and the half-maximal inhibitory concentration (IC50) is more than 457 µM.
For `O=C1c2c([nH]ccc2=O)-c2nccc3c2c1nc1ccccc13`, the EC50 is more than 2 µM and the IC50 amounted to 0.603 µM.
With `CC1=C(C(=O)Nc2ccc([N+](=O)[O-])cc2)C(c2ccco2)C(C(=O)Nc2ccc([N+](=O)[O-])cc2)=C(C)N1`, the EC50 is more than 19.5 µM and the IC50 was 11 µM.
Regarding `COc1cc2c(cc1OC)-c1cc3cc(OC)c(OC)cc3c(=O)n1CC2`, the EC50 was more than 200 µM and the IC50 turned out to be 7.24 µM.
Consider `O=C(CC(=O)c1cccc2ccccc12)C(=O)Nc1ccc(Cl)cc1`, for which the result was inactive.
As for `COc1ccc(S(=O)(=O)NCCSSCCNS(=O)(=O)c2ccc(OC)cc2)cc1`, the EC50 was more than 200 µM and the IC50 was 26.9 µM.
`CCC12CCCN(Cc3ccccc3)C1c1c(n(C)c3ccccc13)C(CO)C2` (stereo unspecified): the EC50 was more than 25.7 µM and the IC50 is more than 25.7 µM.
As to `c1ccc2c(c1)c1c(n2CCOCCN2CCCCC2)CCCC1`, the EC50 is more than 200 µM and the IC50 turned out to be 8.32 µM.
For the compound `CCCCCCCCCCCCOCC1(COCCCCCCCCCCCC)COC(c2ccc(N)cc2)OC1`, the EC50 is more than 200 µM and the IC50 was more than 200 µM.
